Among the data in US11957701B2, “Therapy and new therapeutic agent for blood cancer” (Delta-Fly Pharma, Inc., priority 2020, dated 2024) are IC50 values, retold here.

The assay relates to MV4-11. Put plainly: Combined use under low protein content, MTT assay after 48 hours. Format: cell-based, human. Particulars: MV4-11, low protein content. For orientation: Formazan colour is commonly taken as a measure of viable cells.

Where a name gives a salt, the structure may show the parent alone. Read-outs that look alike come from different tables or passages of the source.

Take `N#C[C@H]1[C@H](O)[C@@H](CO)O[C@H]1n1ccc(N)nc1=O` [DFP-10917, 4-amino-1-(2-cyano-2-deoxy-β-D-arabinofuranosyl)-2(1H)-pyrimidinone monohydrochloride]: the concentration for half-maximal inhibition (IC50) (in general, the concentration at which inhibition is half-maximal) (Homo sapiens, read-out: IC50 value of DFP-10917 alone) turned out to be 1530 nM.
With venetoclax, the concentration for half-maximal inhibition (IC50) (read-out: IC50 value of venetoclax alone) was 0.0968 nM.
